For 37 compounds, Ki results are on record in patent publication US7964624B1, “Inhibitors of serine proteases” (priority 2005, dated 2011).

The target in experiment [1] is T1, full-length hepatitis C viral protein NS3•4A (Hepatitis C virus genotype 1a, UniProt P27958).
T1 construct: hexa-histidine (N); made in house; host or cells: Sf9 insect cells (baculovirus, pVL1392)
In words: biochemical. Further details: species or system HCV sub-type strain 1a. The note with it: Enzyme Assay 2 (HCV NS3 Peptide Cleavage Assay) activity, apparent Ki class.

The next experiment addresses T2, HCV NS3 protease domain (Hepatitis C virus genotype 1b, UniProt Q9WMX2).
T2 construct: The first 181 amino acids of NS3 (residues 1027-1207 of the viral polyprotein); hexa-histidine (C); made in house; host or cells: E. coli BL21/DE3 pLysS
The experiment is described as follows: biochemical. The note with it: Enzyme Assay 1 (HCV NS3 Protease Domain Peptide Cleavage Assay) activity, apparent Ki class.

Regarding `CCC[C@H](NC(=O)[C@@H]1C[C@]2(CC(c3cccc(Cl)c3)=NO2)CN1C(=O)[C@@H](NC(=O)CC1CCCCC1)C(C)(C)C)C(=O)C(=O)NC(C)Cc1c[nH]c2ccc(C(C)=O)cc12` (some centres unmarked) [Compound 138], the Ki (in experiment [1]; at HCV NS3 protease domain) was above 0.5 µM in each case.

For the compound `CCC[C@H](NC(=O)[C@@H]1C[C@]2(CC(c3cccc(Cl)c3)=NO2)CN1C(=O)[C@@H](NC(=O)CC1CCCCC1)C(C)(C)C)C(=O)C(=O)NCC1COc2ccccc2O1` (some centres unmarked) [Compound 141], the figures for the Ki (in experiment [1]; on HCV NS3 protease domain) were 0.1 to 0.5 µM and above 0.5 µM, respectively.

Take `CCC[C@H](NC(=O)[C@@H]1C[C@]2(CC(c3cccc(Cl)c3)=NO2)CN1C(=O)[C@@H](NC(=O)CC1CCCCC1)C(C)(C)C)C(=O)C(=O)NCC(C)C` [Compound 143]: the Ki (in experiment [1]; on HCV NS3 protease domain) was 0.1 to 0.5 µM throughout.

Turning to `CCC[C@H](NC(=O)[C@@H]1C[C@]2(CC(c3cccc(Cl)c3)=NO2)CN1C(=O)[C@@H](NC(=O)CC1CCCCC1)C(C)(C)C)C(=O)C(=O)Nc1cccc(NS(C)(=O)=O)c1` [Compound 148], the Ki (in experiment [1]; at HCV NS3 protease domain) was above 0.5 µM each time.

Consider `CCC[C@H](NC(=O)[C@@H]1C[C@]2(CC(c3cccc(Cl)c3)=NO2)CN1C(=O)C(NC(=O)CC1C[C@@H](C)O[C@H](C)C1)C(C)(C)C)C(=O)C(=O)NC1CC1` (some centres unmarked) [Compound 153], for which the Ki (in experiment [1]; at HCV NS3 protease domain) was 0.1 to 0.5 µM throughout.

In the case of `CCC[C@H](NC(=O)[C@@H]1C[C@]2(CC(c3cc(Cl)ccc3OC)=NO2)CN1C(=O)[C@@H](NC(=O)CC1CCCCC1)C(C)(C)C)C(=O)C(=O)NC1CC1` [Compound 158], the Ki (in experiment [1]; on HCV NS3 protease domain) was below 0.1 µM each time.

Turning to `C=C[C@@H]1C[C@]1(NC(=O)[C@@H]1C[C@]2(CC(c3cccc(Cl)c3)=NO2)CN1C(=O)[C@@H](NC(=O)CC1CCCCC1)C(C)(C)C)C(=O)NS(=O)(=O)C1CC1` [Compound 162], the Ki in experiment [1] was below 0.1 µM; on HCV NS3 protease domain it was 0.1 to 0.5 µM.

Take `CC(C)(C)OC(=O)N[C@H]1CCCCC/C=C\[C@@H]2C[C@@]2(C(=O)NS(=O)(=O)C2CC2)NC(=O)[C@@H]2C[C@]3(CC(C(=O)c4ccccc4)=NO3)CN2C1=O` [Compound 163]: the Ki (in experiment [1]; on HCV NS3 protease domain) was below 0.1 µM throughout.

Take `CCC[C@H](NC(=O)[C@@H]1C[C@]2(CC(c3cc(Cl)cnc3OC)=NO2)CN1C(=O)[C@@H](NC(=O)CC1CCCCC1)C(C)(C)C)C(=O)C(=O)NC1CC1` [Compound 165]: the figures for the Ki (in experiment [1]; at HCV NS3 protease domain) were below 0.1 µM and 0.1 to 0.5 µM, respectively.

With `CCC[C@H](NC(=O)[C@@H]1C[C@]2(CC(c3ccsc3)=NO2)CN1C(=O)[C@@H](NC(=O)CC1CCCCC1)C(C)(C)C)C(=O)C(=O)NC1CC1` [Compound 168], the Ki (in experiment [1]; on HCV NS3 protease domain) was 0.1 to 0.5 µM throughout.

Take `CCC[C@H](NC(=O)[C@@H]1C[C@]2(CC(c3cccc(Cl)c3)=NO2)CN1C(=O)[C@@H](Nc1ccccc1)C(C)(C)C)C(=O)C(=O)NC1CC1` [Compound 172]: the Ki in experiment [1] is 0.1 to 0.5 µM; at HCV NS3 protease domain, above 0.5 µM.

For the compound `CCC[C@H](NC(=O)[C@@H]1C[C@]2(CC(c3cccc(Cl)c3)=NO2)CN1C(=O)[C@@H](NC(=O)CC1CCCCC1)C(C)(C)C)C(=O)C(=O)NCc1csc(-c2ccccc2)n1` [Compound 176], the Ki (in experiment [1]; at HCV NS3 protease domain) was 0.1 to 0.5 µM in each case.

In the case of `CCC[C@H](NC(=O)[C@@H]1C[C@]2(CC(c3ccc(C#N)cc3)=NO2)CN1C(=O)[C@@H](NC(=O)CC1CCOCC1)C(C)(C)C)C(=O)C(=O)NC1CC1` [Compound 177], the Ki in experiment [1] was 0.1 to 0.5 µM; at HCV NS3 protease domain it was above 0.5 µM.

As for `CCC[C@H](NC(=O)[C@@H]1C[C@]2(CC(c3cccc(Cl)c3)=NO2)CN1C(=O)[C@@H](NC(=O)CC1CCCCC1)C(C)(C)C)C(=O)C(=O)Nc1ccc2c(C)cc(=O)[nH]c2c1` [Compound 181], the Ki (in experiment [1]; on HCV NS3 protease domain) was above 0.5 µM each time.

As for `CCC[C@H](NC(=O)[C@@H]1C[C@]2(CC(c3cccc(Cl)c3)=NO2)CN1C(=O)[C@@H](NC(=O)CC1CCCCC1)C(C)(C)C)C(=O)C(=O)N(C)CC` [Compound 182], the Ki (in experiment [1]; on HCV NS3 protease domain) was above 0.5 µM each time.

For `CCC[C@H](NC(=O)[C@@H]1C[C@]2(CC(c3cccc(Cl)c3)=NO2)CN1C(=O)[C@H](Cc1ccsc1)NC(=O)CC1CCCCC1)C(=O)C(=O)NC1CC1` [Compound 185], the results for the Ki (in experiment [1]; on HCV NS3 protease domain) were 0.1 to 0.5 µM and above 0.5 µM, respectively.

Take `CCC[C@H](NC(=O)[C@@H]1C[C@]2(CC(c3cccc(Cl)c3)=NO2)CN1C(=O)[C@@H](NC(=O)CC1CCCCC1)C(C)(C)C)C(=O)C(=O)N1CC[C@@H](NC(C)=O)C1` [Compound 186]: the Ki (in experiment [1]; at HCV NS3 protease domain) was above 0.5 µM each time.

As to `CN(C)C(=O)C(=O)[C@@H](CC1CCC1)NC(=O)[C@@H]1C[C@]2(CC(c3cccc(Cl)c3)=NO2)CN1C(=O)[C@@H](NC(=O)CC1CCCCC1)C(C)(C)C` [Compound 188], the Ki (in experiment [1]; at HCV NS3 protease domain) was above 0.5 µM throughout.

On to `C=C[C@@H]1C[C@]1(NC(=O)[C@@H]1C[C@]2(CC(c3cccc(Cl)c3)=NO2)CN1C(=O)[C@@H](NC(=O)OC1CCCC1)C(C)(C)C)C(=O)NS(=O)(=O)C1CC1` [Compound 190], for which the Ki in experiment [1] was below 0.1 µM; on HCV NS3 protease domain, 0.1 to 0.5 µM.

In the case of `CCC[C@H](NC(=O)[C@@H]1C[C@]2(CC(c3ccc4c(c3)CCC(C)(C)O4)=NO2)CN1C(=O)[C@@H](NC(=O)CC1CCCCC1)C(C)(C)C)C(=O)C(=O)NC1CC1` [Compound 204], the Ki (in experiment [1]; on HCV NS3 protease domain) was 0.1 to 0.5 µM each time.

`CCC[C@H](NC(=O)[C@@H]1C[C@]2(CC(c3cccc(Cl)c3)=NO2)CN1C(=O)[C@@H](NC(=O)CC1CCCCC1)C(C)(C)C)C(=O)C(=O)NCCC(=O)Nc1cc(OC)c2ccccc2c1` [Compound 206]: the Ki (in experiment [1]; on HCV NS3 protease domain) was 0.1 to 0.5 µM throughout.

On to `CCC[C@H](NC(=O)[C@@H]1C[C@]2(CC(c3cccc(Cl)c3)=NO2)CN1C(=O)[C@H](Cc1ccc(OC)cc1)NC(=O)CC1CCCCC1)C(=O)C(=O)NC1CC1` [Compound 213], for which the Ki (in experiment [1]; at HCV NS3 protease domain) was above 0.5 µM throughout.

As for `CCC[C@H](NC(=O)[C@@H]1C[C@]2(CC(c3cccc(Cl)c3)=NO2)CN1C(=O)[C@@H](NC(=O)C1CCC(=O)N1)C(C)C)C(=O)C(=O)NC1CC1` (some centres unmarked) [Compound 218], the Ki (in experiment [1]; on HCV NS3 protease domain) was above 0.5 µM each time.

Take `CCC[C@H](NC(=O)[C@@H]1C[C@]2(CC(c3cccc(Cl)c3)=NO2)CN1C(=O)[C@@H](NC(=O)CC1CCCCC1)C(C)(C)C)C(=O)C(=O)NCCc1ccc2c(c1)OCO2` [Compound 221]: the Ki (in experiment [1]; at HCV NS3 protease domain) was 0.1 to 0.5 µM each time.

For the compound `CCC[C@H](NC(=O)[C@@H]1C[C@]2(CC(c3cccc(Cl)c3)=NO2)CN1C(=O)C1(C(N)=O)CC1)C(=O)C(=O)NC1CC1` [Compound 227], the Ki (in experiment [1]; on HCV NS3 protease domain) was above 0.5 µM each time.

`CCC[C@H](NC(=O)[C@@H]1C[C@]2(CC(c3cccc(Cl)c3)=NO2)CN1C(=O)[C@@H](NC(=O)CC1(O)CCCCC1)C(C)(C)C)C(=O)C(=O)NC1CC1` [Compound 233]: the figures for the Ki (in experiment [1]; at HCV NS3 protease domain) were below 0.1 µM and 0.1 to 0.5 µM, respectively.

For the compound `CCC[C@H](NC(=O)[C@@H]1C[C@]2(CC(c3cccc(Cl)c3)=NO2)CN1C(=O)[C@@H](NC(=O)[C@@H]1CCC(=O)N1C(C)C)C(C)(C)C)C(=O)C(=O)NC1CC1` [Compound 241], the Ki in experiment [1] was 0.1 to 0.5 µM; at HCV NS3 protease domain, above 0.5 µM.

For the compound `CCC[C@H](NC(=O)[C@@H]1C[C@]2(CC(c3cccc(Cl)c3)=NO2)CN1C(=O)CCCC(=O)Nc1ccc(C)cc1C)C(=O)C(=O)NC1CC1` [Compound 246], the Ki (in experiment [1]; on HCV NS3 protease domain) was above 0.5 µM in each case.

As for `CCC[C@H](NC(=O)[C@@H]1C[C@]2(CC(c3cccc(Cl)c3)=NO2)CN1C(=O)c1ccc(Cl)cc1Nc1ccc(OC)nc1)C(=O)C(=O)NC1CC1` [Compound 248], the Ki (in experiment [1]; on HCV NS3 protease domain) was above 0.5 µM throughout.

Consider `CCC[C@H](NC(=O)[C@@H]1C[C@]2(CC(c3cccc(Cl)c3)=NO2)CN1C(=O)[C@@H](NC(=O)C=C1CCCCC1)C(C)(C)C)C(=O)C(=O)NC1CC1` [Compound 252], for which the Ki was below 0.1 µM in experiment [1] and 0.1 to 0.5 µM at HCV NS3 protease domain.

Turning to `CCC[C@H](NC(=O)[C@@H]1C[C@]2(CC(c3cccc(Cl)c3)=NO2)CN1C(=O)[C@@H](NC(=O)CC1CCCCC1)C(C)(C)C)C(=O)C(=O)N(C)C` [Compound 253], the Ki (in experiment [1]; on HCV NS3 protease domain) was above 0.5 µM each time.

For the compound `CCC[C@H](NC(=O)[C@@H]1C[C@]2(CC(c3cccc(Cl)c3)=NO2)CN1C(=O)[C@@H](NC(=O)CC1CCCCC1)C(C)(C)C)C(=O)C(=O)N[C@@H](C)c1cccc(OC)c1` [Compound 255], the Ki (in experiment [1]; at HCV NS3 protease domain) was 0.1 to 0.5 µM throughout.

`CCC[C@H](NC(=O)[C@@H]1C[C@]2(CC(c3cccc(Cl)c3)=NO2)CN1C(=O)[C@@H](NC(=O)CC1CCCCC1)C(C)(C)C)C(=O)C(=O)NCC1CC1` [Compound 265]: the Ki in experiment [1] was 0.1 to 0.5 µM; on HCV NS3 protease domain, above 0.5 µM.

Consider `C#CC[C@H](C(=O)N[C@H](C(=O)N1C[C@@]2(CC(c3cccc(Cl)c3)=NO2)C[C@H]1C(=O)N[C@@H](CCC)C(=O)C(=O)NC1CC1)C(C)(C)C)C1CCCCC1` [Compound 266], for which the Ki (in experiment [1]; on HCV NS3 protease domain) was 0.1 to 0.5 µM each time.

As to `CC(C)(C)[C@H](NC(=O)CC1CCCCC1)C(=O)N1C[C@@]2(CC(c3cccc(Cl)c3)=NO2)C[C@H]1C(=O)NC(CC1CCC1)C(=O)C(=O)NCC(F)(F)F` (some centres unmarked) [Compound 268], the Ki in experiment [1] was above 0.5 µM; at HCV NS3 protease domain, 0.1 to 0.5 µM.

Take `C=C[C@@H]1C[C@]1(NC(=O)[C@@H]1C[C@]2(CC(c3cccc(Cl)c3)=NO2)CN1C(=O)[C@@H](NC(=O)O[C@H]1CCOC1)C(C)(C)C)C(=O)O` [Compound 269]: the Ki (in experiment [1]; on HCV NS3 protease domain) was above 0.5 µM throughout.

`CCC[C@H](NC(=O)[C@@H]1C[C@]2(CC(c3cccc(Cl)c3)=NO2)CN1C(=O)[C@@H](NC(=O)[C@@H]1C[C@H]1c1ccccc1)C(C)(C)C)C(=O)C(=O)NC1CC1` [Compound 271]: the values for the Ki (in experiment [1]; on HCV NS3 protease domain) were below 0.1 µM and 0.1 to 0.5 µM, respectively.
